Laboratory results reported in patent US5140102A, “Pentadecapeptide, guanylin, which stimulates intestinal guanylate cyclase” (Monsanto Company, priority 1991, dated 1992).
One block for each molecule: values may come before it. Positions of bridges follow the written chain, without caps; N, C: chain ends. Residues, ends and D or L forms follow the SMILES beside them.

Legend:
[1] = biological target: T1, intestinal guanylate cyclase (Homo sapiens, UniProt P25092); test: Cyclic GMP determination in T84 cells (bioassay); assay type: cell-based
T1 construct: Monolayers of T84 cells in 24-well plates were washed twice; host or cells: T84 human colon carcinoma cells

[2] = test system: proximal colon; conditions: read-out: EC50 for increase in Isc (X±S.E.); mucosal (luminal) addition, rat proximal colon, n=4 animals

T1 sequence (P25092 24-1073): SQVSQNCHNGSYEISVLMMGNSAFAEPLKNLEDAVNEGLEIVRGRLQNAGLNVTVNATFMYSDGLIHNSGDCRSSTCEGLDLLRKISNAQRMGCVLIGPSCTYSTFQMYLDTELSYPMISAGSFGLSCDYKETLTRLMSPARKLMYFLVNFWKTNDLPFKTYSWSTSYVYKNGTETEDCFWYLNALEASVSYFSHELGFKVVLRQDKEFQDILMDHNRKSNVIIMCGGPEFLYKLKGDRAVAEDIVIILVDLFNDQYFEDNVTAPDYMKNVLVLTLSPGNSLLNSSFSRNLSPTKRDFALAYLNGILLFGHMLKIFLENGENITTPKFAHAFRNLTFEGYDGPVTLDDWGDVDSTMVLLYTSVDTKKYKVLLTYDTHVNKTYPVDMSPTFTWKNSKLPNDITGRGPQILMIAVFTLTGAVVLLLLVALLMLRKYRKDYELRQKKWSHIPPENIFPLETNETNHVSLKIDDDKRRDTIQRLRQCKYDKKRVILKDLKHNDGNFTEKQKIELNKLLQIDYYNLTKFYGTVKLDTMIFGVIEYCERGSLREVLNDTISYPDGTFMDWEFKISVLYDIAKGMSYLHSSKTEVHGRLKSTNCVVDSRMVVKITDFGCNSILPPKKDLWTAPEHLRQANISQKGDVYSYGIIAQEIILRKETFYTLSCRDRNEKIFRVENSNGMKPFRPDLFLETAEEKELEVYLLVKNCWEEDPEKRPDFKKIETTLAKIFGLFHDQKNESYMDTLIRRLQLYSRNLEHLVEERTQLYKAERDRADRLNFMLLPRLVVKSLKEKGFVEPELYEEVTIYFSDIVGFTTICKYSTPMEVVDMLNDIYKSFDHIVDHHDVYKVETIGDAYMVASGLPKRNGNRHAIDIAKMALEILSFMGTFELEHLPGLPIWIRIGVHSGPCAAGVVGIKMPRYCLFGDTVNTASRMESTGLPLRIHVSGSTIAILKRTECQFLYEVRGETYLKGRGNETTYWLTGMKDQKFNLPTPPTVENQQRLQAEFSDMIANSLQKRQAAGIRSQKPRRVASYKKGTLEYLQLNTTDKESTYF

SMILES: CC[C@H](C)[C@@H]1NC(=O)[C@H](CCCNC(=N)N)NC(=O)[C@H](CC(=O)O)NC(=O)[C@H](CCSC)NC(=O)[C@H](CCCNC(=N)N)NC(=O)CNC(=O)CNC(=O)[C@H](Cc2ccccc2)NC(=O)[C@@H](NC(=O)[C@H](CO)NC(=O)[C@H](CO)NC(=O)[C@H](CCCNC(=N)N)NC(=O)[C@H](CCCNC(=N)N)NC(=O)[C@H](CC(C)C)NC(=O)[C@@H](N)CO)CSSC[C@@H](C(=O)N[C@@H](CC(N)=O)C(=O)N[C@@H](CO)C(=O)N[C@@H](Cc2ccccc2)C(=O)N[C@@H](CCCNC(=N)N)C(=O)N[C@@H](Cc2ccc(O)cc2)C(=O)O)NC(=O)CNC(=O)[C@H](CC(C)C)NC(=O)CNC(=O)[C@H](CO)NC(=O)[C@H](CCC(N)=O)NC(=O)[C@H](C)NC(=O)CNC1=O [atrial natriuretic peptide]
effect on cyclic GMP levels [1]: not detected

SMILES: CC[C@H](C)[C@@H]1NC(=O)[C@H](CCC(=O)O)NC(=O)[C@@H](NC(=O)[C@@H](NC(=O)[C@H](CC(N)=O)NC(=O)[C@@H]2CCCN2)[C@@H](C)O)CSSC[C@@H]2NC(=O)[C@H](C)NC(=O)[C@H](C)NC(=O)[C@H](Cc3ccc(O)cc3)NC(=O)[C@H](C)NC(=O)[C@H](CSSC[C@@H](C(=O)O)NC(=O)CNC(=O)[C@H]([C@@H](C)O)NC2=O)NC1=O [guanylin] (H-PNTCEICAYAACTGC-OH; disulfide 4-12, 7-15)
EC50 [2]: 0.162 ± 0.026 µM

effect on responsiveness of the cells ([1]; T84 cells treated with 10 μM): failed to affect their responsiveness
SMILES: O[C@H](CS)[C@H](O)CS (racemic) [DTT, dithiothreitol]
